Results from paper PMC9979163, “Discovery and functional characterization of N-(thiazol-2-yl)-benzamide analogs as the first class of selective antagonists of the Zinc-Activated Channel (ZAC)” (Biochemical pharmacology, 2021).

These molecules were tested against T1, ZAC (Homo sapiens, UniProt Q401N2) (assay: TEVC recordings, Zn2+-evoked currents at ZAC expressed in Xenopus oocytes). Settings: 1 mM Zn2+ as agonist, tested at three concentrations (0.3-3-30 μM or 1-10-100 μM).
T1 sequence (Q401N2 26-412): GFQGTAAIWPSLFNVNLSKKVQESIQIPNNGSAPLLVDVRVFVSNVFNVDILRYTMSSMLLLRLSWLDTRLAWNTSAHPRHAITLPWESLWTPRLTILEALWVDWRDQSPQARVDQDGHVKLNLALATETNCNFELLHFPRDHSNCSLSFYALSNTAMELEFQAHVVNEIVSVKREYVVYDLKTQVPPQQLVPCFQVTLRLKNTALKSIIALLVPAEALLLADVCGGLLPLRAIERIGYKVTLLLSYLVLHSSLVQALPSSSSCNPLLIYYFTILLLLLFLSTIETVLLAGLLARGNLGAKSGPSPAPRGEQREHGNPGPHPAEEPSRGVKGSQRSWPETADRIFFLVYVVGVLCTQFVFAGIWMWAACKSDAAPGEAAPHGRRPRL
Type: cell-based
Protocol: The cDNAs for the various WT and chimeric CLR subunits were linearized and subsequently transcribed and capped mMessage mMachine T7 RNA transcription kit (Ambion, Waltham, MA). Different amounts of cRNA mixtures were injected for ZAC (9.2–36.8 nL in a concentration of 0.05 μg/μL), […] nAChR (9.2–36.8 nL in a concentration of 0.1 μg/μL of each subunit in a ratio of 1:1), hα1 GlyR (9.2–36.8 nL in a concentration of 0.05 μg/μL), hα1β2γ2s GABAAR (9.2–36.8 nL in a concentration of 0.05 μg/μL of each subunit in a ratio of 1:1:3), m5-HT3AR (9.2–36.8 nL in a concentration of 0.05 μg/μL), m5-HT3A/ZAC (9.2–36.8 nL in a concentration of 0.207 μg/μL), and ZAC/hai-Gly (9.2–36.8 nL in a concentration of 0.206 μg/μL). Oocytes were incubated in a sterile modified Barth’s solution [88 mM NaCl, 1 mM KCl, 15 mM HEPES (pH 7.5), 2.4 mM NaHCO3, 0.41 mM CaCl2, 0.82 mM MgSO4, 0.3 mM Ca(NO3)2, 100 U/ml penicillin and 100 μg/ml strep-tomycin] at 18 °C for 2 days after injection.
On the day of experiment, all compound dilutions were prepared in a saline solution [115 mM NaCl, 2.5 mM KCl, 10 mM MOPS (pH 7.5), 1.8 mM CaCl2, 0.1 mM MgCl2] and pH adjusted to 7.5 (if needed). Oocytes were placed in a recording chamber continuously perfused with this saline solution, and the compounds were applied in the perfusate. Both voltage and current electrodes were agar-plugged with 3 M KCl with a resistance of 0.2–2.0 MΩ. Oocytes were voltage-clamped at −50 mV (unless otherwise stated) by a Gene Clamp 500B amplifier (Axon Instruments, Union City, CA), while current signals were digitized by a Digidata 1320. Currents were recorded using pCLAMP 10 (Molecular Devices, Sunnyvale, CA). The recordings were performed at room temperature.
In all recordings, the compounds or compound combinations were applied in the bath until the peak current decayed to a steady state (up to 30 sec at the most). […] The functional properties of the modulators at the CLRs were determined by pre-application of the modulator to the perfusate 30 sec and followed by co-application of the modulator and the agonist to the perfusate. In all recordings, washes of 1–5 min were executed between the applications to prevent receptor desensitization, the duration of these washes depending on the kinetics of the respective receptors and the “stickyness” of the respective compounds. […] For the selectivity and mode-of-action studies, the agonist concentrations used for different CLRs or chimeric CLRs were in the EC20–EC40 range (verified on the day of experiment), as this enabled us to investigate both for putative positive and negative receptor modulation exerted by TTFB (hα3β4 nAChR, 3 μM (S)-nicotine; m5-HT3AR, 2 μM 5-HT; hα1 GlyR, 100 μM glycine; hα1β2γ2S GABAAR, 30 μM GABA; m5-HT3A/ZAC, 0.3 μM 5-HT; ZAC/hɑ1-Gly, 2 μM Zn^2+).
Data analysis of the results from the TEVC recordings were performed using Clampfit software version 10.5 (Molecular Devices, Crawley, UK) and GraphPad Prism version 7.0c (GraphPad Software, Inc. La Jolla, CA). Data for the test compounds were normalized to either the maximal agonist-evoked current or to an EC20–EC50-mediated response elicited by the agonist on each oocyte (specified in each case). Unless otherwise stated, data for agonist-induced responses in the presence of the antagonists were extracted from the plateau (or steady-state) of the agonist-evoked current. Concentration-response and concentration-inhibition curves were fitted in GraphPad Prism by nonlinear regression using the equation for sigmoidal dose-response with variable slope. I-V relationships were analyzed by fitting the curves with a third order polynomial model. Each data point represents the mean ± S.E.M. value of recordings performed on at least five oocytes from at least two different batches.
`Cc1cnc(NC(=O)c2cc(Br)ccc2Cl)s1` [2a] was tested, and the “Antagonist activity at ZAC in SAR study (in words)” value (“Antagonist activity at ZAC” for short) was “inactivity”. For `CC(C)(C)c1csc(NC(=O)c2cc(Br)ccc2Cl)n1` [2b], the “Antagonist activity at ZAC” value was “slightly more potent and efficacious ZAC inhibition than 1”. With `CCOC(=O)Cc1csc(NC(=O)c2cc(Br)ccc2Cl)n1` [2c] the “Antagonist activity at ZAC” value was “slightly more potent and efficacious ZAC inhibition than 1”. In the case of `Cc1ccc(-c2csc(NC(=O)c3cc(Br)ccc3Cl)n2)cc1` [2d], the “Antagonist activity at ZAC” value is reported as “reduced substantially”. With `O=C(Nc1nc2ccccc2s1)c1cc(Br)ccc1Cl` [2e] the “Antagonist activity at ZAC” value was “substantial loss of activity”. `O=C(Nc1nnc(C2CCCCC2)s1)c1cc(Br)ccc1Cl` [2f] was tested, and the “Antagonist activity at ZAC” value was “substantial loss of activity”. In the case of `CCc1nc(NC(=O)c2cccc(Br)c2)sc1C(=O)OC` [3a], the “Antagonist activity at ZAC” value is reported as “inactive”. For `CCOC(=O)c1sc(NC(=O)c2cccc(Br)c2)nc1C` [3b], the “Antagonist activity at ZAC” value was “inactive”. In the case of `Cc1csc(NC(=O)c2cccc(Br)c2)n1` [3c], the “Antagonist activity at ZAC” value is reported as “weak ZAC activity”. For `CC(C)(C)c1csc(NC(=O)c2cccc(Br)c2)n1` [3d], the “Antagonist activity at ZAC” value was “fairly potent”. In the case of `O=C(Nc1nc(-c2ccc(Br)s2)cs1)c1cccc(Br)c1` [3e], the “Antagonist activity at ZAC” value is reported as “eliminated ZAC activity completely”. For `O=C(Nc1ncc([N+](=O)[O-])s1)c1cccc(Br)c1` [3f], the “Antagonist activity at ZAC” value was “weaker antagonists”. For `Cc1nc(NC(=O)c2cccc(Br)c2)sc1C` [3g], the “Antagonist activity at ZAC” value was “considerably weaker antagonist”. `CC(C)(C)c1nnc(NC(=O)c2cccc(Br)c2)s1` [3k] was tested, and the “Antagonist activity at ZAC” value was “essentially eliminated ZAC activity”. For `COC(=O)c1sc(NC(=O)c2ccccc2C)nc1C` [4a], the “Antagonist activity at ZAC” value was “essentially inactive”. With `COC(=O)c1sc(NC(=O)c2ccc(C)cc2)nc1C` [4b] the “Antagonist activity at ZAC” value was “essentially inactive”. For `COC(=O)c1sc(NC(=O)c2cccc(I)c2)nc1C` [4c], the “Antagonist activity at ZAC” value was “did not alter its antagonist activity substantially”. `COC(=O)c1sc(NC(=O)c2cc(C)cc(C)c2)nc1C` [4d] was tested, and the “Antagonist activity at ZAC” value was “did not alter its antagonist activity substantially”. For `COC(=O)c1sc(NC(=O)c2cc([N+](=O)[O-])cc([N+](=O)[O-])c2)nc1C` [4e], the “Antagonist activity at ZAC” value was “completely devoid of antagonist activity”. In the case of `COC(=O)c1sc(NC(=O)c2cc([N+](=O)[O-])ccc2Cl)nc1C` [4f], the “Antagonist activity at ZAC” value is reported as “inactive”. With `CCOc1ccc(C(=O)Nc2nc(C)c(C(=O)OC)s2)cc1Br` [4g] the “Antagonist activity at ZAC” value was “inactive”. For `COC(=O)c1sc(NC(=O)c2ccncc2)nc1C` [4h], the “Antagonist activity at ZAC” value was “inactive”. With `CCOC(=O)c1sc(NC(=O)c2ccccc2Cl)nc1C` [4i] the “Antagonist activity at ZAC” value was “inactive”. With `CCOC(=O)c1sc(NC(=O)c2cc(Cl)cc(Cl)c2)nc1C` [4j] the “Antagonist activity at ZAC” value was “inactive”. With `CCOC(=O)c1sc(NC(=O)c2cc(Cl)ccc2OC)nc1C` [4k] the “Antagonist activity at ZAC” value was “inactive”. With `CCOC(=O)c1sc(NC(=O)c2cc(OC)c(OC)c(OC)c2)nc1C` [4l] the “Antagonist activity at ZAC” value was “essentially inactive”. `C=CCN(CC=C)S(=O)(=O)c1ccc(C(=O)Nc2nc(C)c(C(=O)OCC)s2)cc1` [4m] was tested, and the “Antagonist activity at ZAC” value was “inactive”. In the case of `CCOC(=O)c1sc(NC(=O)c2cccnc2)nc1C` [4n], the “Antagonist activity at ZAC” value is reported as “inactive”. In the case of `CCOC(=O)c1sc(NC(=O)c2ccco2)nc1C` [4o], the “Antagonist activity at ZAC” value is reported as “inactive”. For `CC(C)(C)c1csc(NC(=O)c2c(F)c(F)c(F)c(F)c2F)n1` [5b], the “Antagonist activity at ZAC” value was “considerably weaker ZAC antagonist”. With `CN(C)c1cccc(C(=O)Nc2nc(C(C)(C)C)cs2)c1` [5f] the “Antagonist activity at ZAC” value was “roughly equipotent with 2b”. `COc1ccc(Cl)cc1C(=O)Nc1nc(C(C)(C)C)cs1` [5g] was tested, and the “Antagonist activity at ZAC” value was “somewhat potent but apparent partial inhibition”. `CC(C)(C)c1csc(NC(=O)c2cc(F)c(F)cc2Cl)n1` [5h] was tested, and the “Antagonist activity at ZAC” value was “lower potency as ZAC antagonist than 2b”. `COc1cc(C(=O)Nc2nc(C(C)(C)C)cs2)cc(OC)c1OC` [5i] was tested, and the “Antagonist activity at ZAC” value was “essentially inactive”. `O=C(Nc1nccs1)c1cc(F)c(F)cc1Cl` [6a] was tested, and the “Antagonist activity at ZAC” value was “inactivity”. In the case of `Cc1cnc(NC(=O)c2cc(F)c(F)cc2Cl)s1` [6b], the “Antagonist activity at ZAC” value is reported as “inactivity”. In the case of `CC(=O)c1sc(NC(=O)c2cc(F)c(F)cc2Cl)nc1C` [6c], the “Antagonist activity at ZAC” value is reported as “inactivity”. With `CCOC(=O)Cc1csc(NC(=O)c2cc(Cl)cc(Cl)c2)n1` [6g] the “Antagonist activity at ZAC” value was “inactivity”. In the case of `CN(C)c1cccc(C(=O)Nc2nc(C3CC3)cs2)c1` [6l], the “Antagonist activity at ZAC” value is reported as “decreased antagonist potency”. `CC(C)c1csc(NC(=O)c2cccc(Nc3ncccn3)c2)n1` [6m] was tested, and the “Antagonist activity at ZAC” value was “further reduced ZAC activity”.

Same assay, conditions: Zn2+ (1 mM) as agonist, TEVC
`CC(C)(C)c1csc(NC(=O)c2cc(Br)ccc2Cl)n1` [2b] was tested, and the “Fitted inhibition range, Inhibition (%)” value was 88 ± 3% and the “Hill coefficient nH ± S.E.M.” value was −1.2 ± 0.12. For `COC(=O)c1sc(NC(=O)c2cccc(I)c2)nc1C` [4c], the “Fitted inhibition range, Inhibition (%)” value was 78 ± 3% and the “Hill coefficient nH ± S.E.M.” value was −0.89 ± 0.06.

Same assay, conditions: Zn2+ (1 mM) as agonist, TEVC, steady-state current; read-out: IC50
`O=C(Nc1ncc([N+](=O)[O-])s1)c1cccc(Br)c1` [3f] gave an IC50 of roughly 20000 nM.

Same assay, conditions: Zn2+ (1 mM) as agonist, TEVC, steady-state current; read-out: pIC50 ± S.E.M. (converted)
For `CC(C)(C)c1csc(NC(=O)c2cc(Br)ccc2Cl)n1` [2b], the IC50 was 1320 nM. `COC(=O)c1sc(NC(=O)c2cccc(I)c2)nc1C` [4c] was tested, and the IC50 was 1020 nM.

Same assay, conditions: Zn2+ (1 mM), full concentration-inhibition curves
In the case of `CC(C)(C)c1csc(NC(=O)c2cc(Br)ccc2Cl)n1` [2b], the “Extent of inhibition of Zn2+-induced responses (in words)” value is reported as “completely”. For `COC(=O)c1sc(NC(=O)c2cccc(I)c2)nc1C` [4c], the “Extent of inhibition of Zn2+-induced responses (in words)” value was “completely”.
